In ChEMBL document CHEMBL1149703 (Bioorg Med Chem Lett, 2007):

Experiments:
[1] = target: T1, AMP-activated protein kinase, AMPK (Homo sapiens) (UniProt P54646+O43741+P54619+Q9UGJ0+Q9Y478+Q13131+Q9UGI9); experiment: Inhibition of AMPK assessed as residual activity at 0.01 uM; assay type: protein-complex assay
[2] = target: Ribosomal protein S6 kinase alpha-1 (Homo sapiens) (UniProt Q15418); experiment: Inhibition of RSK1 assessed as residual activity at 1 uM
Homo sapiens [3] = organism: Homo sapiens; experiment: Inhibition of CDK2/cyclin A assessed as residual activity at 1 uM
[4] = target: Serine/threonine-protein kinase pim-1 (Homo sapiens) (UniProt P11309); experiment: Inhibition of PIM1 assessed as residual activity at 0.01 uM
[5] = target: Mitogen-activated protein kinase 10 (Homo sapiens) (UniProt P53779); experiment: Inhibition of JNK3 assessed as residual activity at 1 uM
[6] = target: Calcium/calmodulin-dependent protein kinase type 1 (Homo sapiens) (UniProt Q14012); experiment: Inhibition of CAMK1 assessed as residual activity at 0.01 uM
[7] = target: Serine/threonine-protein kinase D1 (Homo sapiens) (UniProt Q15139); experiment: Inhibition of PKD1 assessed as residual activity at 0.01 uM
[8] = target: Serine/threonine-protein kinase PAK 5 (Homo sapiens) (UniProt Q9P286); experiment: Inhibition of PAK5 assessed as residual activity at 0.01 uM
[9] = target: RAC-beta serine/threonine-protein kinase (Homo sapiens) (UniProt P31751); experiment: Inhibition of PKBbeta assessed as residual activity at 0.01 uM
[10] = target: Serine/threonine-protein kinase pim-1 (Homo sapiens) (UniProt P11309); experiment: Inhibition of PIM1 assessed as residual activity at 1 uM
[11] = target: RAC-alpha serine/threonine-protein kinase (Homo sapiens) (UniProt P31749); experiment: Inhibition of PKBalpha assessed as residual activity at 1 uM
[12] = target: Aurora kinase B (Homo sapiens) (UniProt Q96GD4); experiment: Inhibition of AURORA B assessed as residual activity at 0.01 uM
[13] = target: MAP kinase-activated protein kinase 5 (Homo sapiens) (UniProt Q8IW41); experiment: Inhibition of PRAK assessed as residual activity at 0.01 uM
[14] = target: Serine/threonine-protein kinase Sgk1 (Homo sapiens) (UniProt O00141); experiment: Inhibition of SGK1 assessed as residual activity at 0.01 uM
[15] = target: Calcium/calmodulin-dependent protein kinase type 1 (Homo sapiens) (UniProt Q14012); experiment: Inhibition of CAMK1 assessed as residual activity at 1 uM
[16] = target: Serine/threonine-protein kinase Nek6 (Homo sapiens) (UniProt Q9HC98); experiment: Inhibition of NEK6 assessed as residual activity at 1 uM; assay type: functional
[17] = target: Serine/threonine-protein kinase Nek6 (Homo sapiens) (UniProt Q9HC98); experiment: Inhibition of NEK6 assessed as residual activity at 0.01 uM
Homo sapiens [18] = organism: Homo sapiens; experiment: Inhibition of PKA assessed as residual activity at 1 uM
Homo sapiens [19] = organism: Homo sapiens; experiment: Inhibition of PKA assessed as residual activity at 0.01 uM
[20] = target: Proto-oncogene tyrosine-protein kinase Src (Homo sapiens) (UniProt P12931); experiment: Inhibition of Src assessed as residual activity at 1 uM
[21] = target: Mitogen-activated protein kinase 10 (Homo sapiens) (UniProt P53779); experiment: Inhibition of JNK3 assessed as residual activity at 0.01 uM
[22] = target: Glycogen synthase kinase-3 beta (Homo sapiens) (UniProt P49841); experiment: Inhibition of GSK3-beta assessed as residual activity at 1 uM
[23] = target: Aurora kinase B (Homo sapiens) (UniProt Q96GD4); experiment: Inhibition of AURORA B assessed as residual activity at 1 uM
[24] = target: Proto-oncogene tyrosine-protein kinase Src (Homo sapiens) (UniProt P12931); experiment: Inhibition of Src assessed as residual activity at 0.01 uM
[25] = target: Tyrosine-protein kinase Lck (Homo sapiens) (UniProt P06239); experiment: Inhibition of Lck assessed as residual activity at 0.01 uM
[26] = target: Mitogen-activated protein kinase 3 (Homo sapiens) (UniProt P27361); experiment: Inhibition of ERK1 assessed as residual activity at 1 uM
[27] = target: 3-phosphoinositide-dependent protein kinase 1 (Homo sapiens) (UniProt O15530); experiment: Inhibition of PDK1 assessed as residual activity at 1 uM
[28] = target: Mitogen-activated protein kinase 3 (Homo sapiens) (UniProt P27361); experiment: Inhibition of ERK1 assessed as residual activity at 0.01 uM
[29] = target: Dual specificity tyrosine-phosphorylation-regulated kinase 3 (Homo sapiens) (UniProt O43781); experiment: Inhibition of DYRK3 assessed as residual activity at 0.01 uM
[30] = target: RAC-alpha serine/threonine-protein kinase (Homo sapiens) (UniProt P31749); experiment: Inhibition of PKBalpha assessed as residual activity at 0.01 uM
[31] = target: MAP kinase-activated protein kinase 3 (Homo sapiens) (UniProt Q16644); experiment: Inhibition of MAPKAP K3 assessed as residual activity at 1 uM
[32] = target: Serine/threonine-protein kinase PAK 5 (Homo sapiens) (UniProt Q9P286); experiment: Inhibition of PAK5 assessed as residual activity at 1 uM
[33] = target: Ribosomal protein S6 kinase beta-1 (Homo sapiens) (UniProt P23443); experiment: Inhibition of S6K1 assessed as residual activity at 1 uM
[34] = target: Serine/threonine-protein kinase N2 (Homo sapiens) (UniProt Q16513); experiment: Inhibition of PRK2 assessed as residual activity at 1 uM
[35] = target: Protein kinase C alpha type (Homo sapiens) (UniProt P17252); experiment: Inhibition of PKCalpha assessed as residual activity at 0.01 uM
[36] = target: Tyrosine-protein kinase CSK (Homo sapiens) (UniProt P41240); experiment: Inhibition of CSK assessed as residual activity at 1 uM
[37] = target: Glycogen synthase kinase-3 beta (Homo sapiens) (UniProt P49841); experiment: Inhibition of GSK3-beta assessed as residual activity at 0.01 uM
[38] = target: Protein kinase C zeta type (Homo sapiens) (UniProt Q05513); experiment: Inhibition of PKCzeta assessed as residual activity at 0.01 uM
[39] = target: Ribosomal protein S6 kinase alpha-3 (Homo sapiens) (UniProt P51812); experiment: Inhibition of RSK2 assessed as residual activity at 1 uM
[40] = target: 3-phosphoinositide-dependent protein kinase 1 (Homo sapiens) (UniProt O15530); experiment: Inhibition of PDK1 assessed as residual activity at 0.01 uM
[41] = target: Ribosomal protein S6 kinase beta-1 (Homo sapiens) (UniProt P23443); experiment: Inhibition of S6K1 assessed as residual activity at 0.01 uM
[42] = target: Ribosomal protein S6 kinase alpha-1 (Homo sapiens) (UniProt Q15418); experiment: Inhibition of RSK1 assessed as residual activity at 0.01 uM
[43] = target: Serine/threonine-protein kinase Chk1 (Homo sapiens) (UniProt O14757); experiment: Inhibition of CHK1 assessed as residual activity at 1 uM
[44] = target: MAP kinase-activated protein kinase 3 (Homo sapiens) (UniProt Q16644); experiment: Inhibition of MAPKAP K3 assessed as residual activity at 0.01 uM
[45] = target: Serine/threonine-protein kinase pim-2 (Homo sapiens) (UniProt Q9P1W9); experiment: Inhibition of PIM2 assessed as residual activity at 0.01 uM
[46] = target: Protein kinase C zeta type (Homo sapiens) (UniProt Q05513); experiment: Inhibition of PKCzeta assessed as residual activity at 1 uM
[47] = target: Maternal embryonic leucine zipper kinase (Homo sapiens) (UniProt Q14680); experiment: Inhibition of MELK assessed as residual activity at 1 uM
[48] = target: Tyrosine-protein kinase CSK (Homo sapiens) (UniProt P41240); experiment: Inhibition of CSK assessed as residual activity at 0.01 uM
[49] = target: T1, AMP-activated protein kinase, AMPK (Homo sapiens); experiment: Inhibition of AMPK assessed as residual activity at 1 uM; assay type: protein-complex assay
[50] = target: Serine/threonine-protein kinase pim-2 (Homo sapiens) (UniProt Q9P1W9); experiment: Inhibition of PIM2 assessed as residual activity at 1 uM
Homo sapiens [51] = organism: Homo sapiens; experiment: Inhibition of CDK2/cyclin A assessed as residual activity at 0.01 uM
[52] = target: Serine/threonine-protein kinase Sgk1 (Homo sapiens) (UniProt O00141); experiment: Inhibition of SGK1 assessed as residual activity at 1 uM
[53] = target: T2, Casein kinase II (Homo sapiens) (UniProt P67870+P68400+P19784); experiment: Inhibition of CK2 assessed as residual activity at 0.1 uM; assay type: protein-complex assay
[54] = target: Maternal embryonic leucine zipper kinase (Homo sapiens) (UniProt Q14680); experiment: Inhibition of MELK assessed as residual activity at 0.01 uM
[55] = target: Tyrosine-protein kinase Lck (Homo sapiens) (UniProt P06239); experiment: Inhibition of Lck assessed as residual activity at 1 uM
[56] = target: Serine/threonine-protein kinase Chk1 (Homo sapiens) (UniProt O14757); experiment: Inhibition of CHK1 assessed as residual activity at 0.01 uM
[57] = target: Ribosomal protein S6 kinase alpha-3 (Homo sapiens) (UniProt P51812); experiment: Inhibition of RSK2 assessed as residual activity at 0.01 uM
[58] = target: T2, Casein kinase II (Homo sapiens); experiment: Inhibition of CK2 assessed as residual activity at 1 uM; assay type: protein-complex assay
[59] = target: RAC-beta serine/threonine-protein kinase (Homo sapiens) (UniProt P31751); experiment: Inhibition of PKBbeta assessed as residual activity at 1 uM
[60] = target: MAP kinase-activated protein kinase 5 (Homo sapiens) (UniProt Q8IW41); experiment: Inhibition of PRAK assessed as residual activity at 1 uM
[61] = target: Dual specificity tyrosine-phosphorylation-regulated kinase 3 (Homo sapiens) (UniProt O43781); experiment: Inhibition of DYRK3 assessed as residual activity at 1 uM
[62] = target: Serine/threonine-protein kinase D1 (Homo sapiens) (UniProt Q15139); experiment: Inhibition of PKD1 assessed as residual activity at 1 uM
[63] = target: Protein kinase C alpha type (Homo sapiens) (UniProt P17252); experiment: Inhibition of PKCalpha assessed as residual activity at 1 uM
[64] = target: Serine/threonine-protein kinase N2 (Homo sapiens) (UniProt Q16513); experiment: Inhibition of PRK2 assessed as residual activity at 0.01 uM
[65] = target: cAMP-dependent protein kinase catalytic subunit alpha (Homo sapiens, UniProt P17612); experiment: Inhibition of cAPK Calpha in presence of 1 mM ATP

Chain of Serine/threonine-protein kinase Nek6 (Homo sapiens) (Q9HC98 whole entry): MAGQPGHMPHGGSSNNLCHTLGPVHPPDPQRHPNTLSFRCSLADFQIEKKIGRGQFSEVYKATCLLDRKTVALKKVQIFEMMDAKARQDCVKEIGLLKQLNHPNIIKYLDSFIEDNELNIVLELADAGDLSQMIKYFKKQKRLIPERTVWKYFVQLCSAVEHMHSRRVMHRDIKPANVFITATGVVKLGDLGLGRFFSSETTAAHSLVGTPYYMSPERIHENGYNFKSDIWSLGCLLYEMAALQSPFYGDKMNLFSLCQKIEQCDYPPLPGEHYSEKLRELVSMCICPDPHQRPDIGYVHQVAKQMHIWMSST
Chain of Proto-oncogene tyrosine-protein kinase Src (Homo sapiens) (P12931 2-536 limits assumed): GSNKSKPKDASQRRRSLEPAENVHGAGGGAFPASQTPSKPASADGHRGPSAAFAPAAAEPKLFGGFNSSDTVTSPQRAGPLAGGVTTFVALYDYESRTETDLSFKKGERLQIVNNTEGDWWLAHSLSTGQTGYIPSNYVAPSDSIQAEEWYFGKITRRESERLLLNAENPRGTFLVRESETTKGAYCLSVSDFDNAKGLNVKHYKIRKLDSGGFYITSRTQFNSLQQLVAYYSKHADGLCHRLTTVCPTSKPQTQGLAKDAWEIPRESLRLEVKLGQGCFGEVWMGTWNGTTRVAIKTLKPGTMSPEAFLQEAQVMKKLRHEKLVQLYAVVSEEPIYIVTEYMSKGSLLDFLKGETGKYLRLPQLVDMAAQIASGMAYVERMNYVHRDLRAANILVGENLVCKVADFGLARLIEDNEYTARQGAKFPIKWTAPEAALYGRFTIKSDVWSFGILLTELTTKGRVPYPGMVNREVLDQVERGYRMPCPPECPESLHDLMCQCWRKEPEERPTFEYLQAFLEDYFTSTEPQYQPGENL
Chain of Mitogen-activated protein kinase 3 (Homo sapiens) (P27361 whole entry): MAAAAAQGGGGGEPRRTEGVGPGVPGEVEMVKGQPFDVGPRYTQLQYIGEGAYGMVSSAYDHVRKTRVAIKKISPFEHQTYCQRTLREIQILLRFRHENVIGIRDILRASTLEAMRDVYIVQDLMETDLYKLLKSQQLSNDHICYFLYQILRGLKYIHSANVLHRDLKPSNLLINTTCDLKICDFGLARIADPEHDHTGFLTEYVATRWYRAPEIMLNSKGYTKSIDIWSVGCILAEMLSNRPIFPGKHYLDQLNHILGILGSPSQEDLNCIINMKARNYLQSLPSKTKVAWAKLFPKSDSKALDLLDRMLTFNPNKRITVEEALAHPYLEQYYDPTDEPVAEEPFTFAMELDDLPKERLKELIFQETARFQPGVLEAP
Chain of Serine/threonine-protein kinase Chk1 (Homo sapiens) (O14757 whole entry): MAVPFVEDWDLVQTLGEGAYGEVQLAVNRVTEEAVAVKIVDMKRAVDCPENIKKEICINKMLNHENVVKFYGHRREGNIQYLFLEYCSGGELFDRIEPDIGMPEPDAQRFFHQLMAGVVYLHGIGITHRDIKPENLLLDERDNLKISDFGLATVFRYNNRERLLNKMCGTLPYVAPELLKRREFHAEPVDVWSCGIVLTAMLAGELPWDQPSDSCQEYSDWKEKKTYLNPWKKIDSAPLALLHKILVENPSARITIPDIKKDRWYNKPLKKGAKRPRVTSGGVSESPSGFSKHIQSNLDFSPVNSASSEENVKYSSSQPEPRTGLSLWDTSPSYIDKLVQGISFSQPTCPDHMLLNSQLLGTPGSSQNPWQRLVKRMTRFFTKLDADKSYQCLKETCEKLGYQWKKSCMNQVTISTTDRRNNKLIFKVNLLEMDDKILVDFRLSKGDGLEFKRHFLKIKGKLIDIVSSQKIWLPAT
Chain of Tyrosine-protein kinase Lck (Homo sapiens) (P06239 2-509 limits assumed): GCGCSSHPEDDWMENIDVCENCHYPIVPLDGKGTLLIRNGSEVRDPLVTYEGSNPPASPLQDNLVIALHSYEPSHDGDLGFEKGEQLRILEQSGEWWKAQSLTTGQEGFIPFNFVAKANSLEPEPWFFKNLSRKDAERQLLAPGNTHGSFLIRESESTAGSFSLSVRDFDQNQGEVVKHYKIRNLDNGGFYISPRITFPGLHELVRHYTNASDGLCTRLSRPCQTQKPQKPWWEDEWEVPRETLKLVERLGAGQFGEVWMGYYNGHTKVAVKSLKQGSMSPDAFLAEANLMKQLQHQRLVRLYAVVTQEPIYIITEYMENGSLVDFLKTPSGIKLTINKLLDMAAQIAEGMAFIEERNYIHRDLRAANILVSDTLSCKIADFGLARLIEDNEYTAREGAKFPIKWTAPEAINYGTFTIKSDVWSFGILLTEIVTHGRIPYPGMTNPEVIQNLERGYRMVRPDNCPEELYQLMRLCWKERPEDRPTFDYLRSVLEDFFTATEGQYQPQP
Chain of Serine/threonine-protein kinase pim-2 (Homo sapiens) (Q9P1W9 whole entry, looked up): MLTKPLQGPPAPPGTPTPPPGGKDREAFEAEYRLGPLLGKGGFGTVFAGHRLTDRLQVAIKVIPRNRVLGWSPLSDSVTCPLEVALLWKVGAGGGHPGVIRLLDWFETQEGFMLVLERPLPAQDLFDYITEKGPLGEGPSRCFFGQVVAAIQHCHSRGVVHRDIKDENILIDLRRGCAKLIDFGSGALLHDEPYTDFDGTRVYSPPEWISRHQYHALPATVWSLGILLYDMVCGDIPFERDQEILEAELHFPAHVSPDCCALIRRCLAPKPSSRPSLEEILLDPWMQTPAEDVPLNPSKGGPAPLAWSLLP
Chain of MAP kinase-activated protein kinase 3 (Homo sapiens) (Q16644 whole entry, looked up): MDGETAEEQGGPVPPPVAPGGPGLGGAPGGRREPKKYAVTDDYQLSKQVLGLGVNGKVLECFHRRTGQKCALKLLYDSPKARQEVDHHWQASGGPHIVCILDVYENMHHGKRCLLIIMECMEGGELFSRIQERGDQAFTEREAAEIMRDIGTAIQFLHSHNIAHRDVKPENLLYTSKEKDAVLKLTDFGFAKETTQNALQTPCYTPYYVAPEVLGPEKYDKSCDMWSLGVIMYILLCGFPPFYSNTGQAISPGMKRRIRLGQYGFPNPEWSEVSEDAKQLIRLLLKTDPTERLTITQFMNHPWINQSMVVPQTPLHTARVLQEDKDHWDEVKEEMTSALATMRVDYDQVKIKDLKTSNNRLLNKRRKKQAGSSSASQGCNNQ
Chain of Tyrosine-protein kinase CSK (Homo sapiens) (P41240 2-450 limits assumed): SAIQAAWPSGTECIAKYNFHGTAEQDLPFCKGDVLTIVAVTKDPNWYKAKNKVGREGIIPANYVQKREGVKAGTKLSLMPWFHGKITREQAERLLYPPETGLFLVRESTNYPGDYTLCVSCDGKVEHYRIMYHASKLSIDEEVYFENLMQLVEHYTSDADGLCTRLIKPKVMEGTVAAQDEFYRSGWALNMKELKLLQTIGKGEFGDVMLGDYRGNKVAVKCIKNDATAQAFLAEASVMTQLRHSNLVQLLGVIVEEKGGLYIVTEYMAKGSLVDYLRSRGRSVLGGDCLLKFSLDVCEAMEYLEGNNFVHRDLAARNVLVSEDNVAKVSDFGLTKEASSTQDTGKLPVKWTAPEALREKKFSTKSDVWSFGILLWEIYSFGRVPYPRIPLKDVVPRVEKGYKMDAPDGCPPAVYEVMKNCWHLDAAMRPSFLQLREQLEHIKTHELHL
Chain of Serine/threonine-protein kinase N2 (Homo sapiens) (Q16513 whole entry, looked up): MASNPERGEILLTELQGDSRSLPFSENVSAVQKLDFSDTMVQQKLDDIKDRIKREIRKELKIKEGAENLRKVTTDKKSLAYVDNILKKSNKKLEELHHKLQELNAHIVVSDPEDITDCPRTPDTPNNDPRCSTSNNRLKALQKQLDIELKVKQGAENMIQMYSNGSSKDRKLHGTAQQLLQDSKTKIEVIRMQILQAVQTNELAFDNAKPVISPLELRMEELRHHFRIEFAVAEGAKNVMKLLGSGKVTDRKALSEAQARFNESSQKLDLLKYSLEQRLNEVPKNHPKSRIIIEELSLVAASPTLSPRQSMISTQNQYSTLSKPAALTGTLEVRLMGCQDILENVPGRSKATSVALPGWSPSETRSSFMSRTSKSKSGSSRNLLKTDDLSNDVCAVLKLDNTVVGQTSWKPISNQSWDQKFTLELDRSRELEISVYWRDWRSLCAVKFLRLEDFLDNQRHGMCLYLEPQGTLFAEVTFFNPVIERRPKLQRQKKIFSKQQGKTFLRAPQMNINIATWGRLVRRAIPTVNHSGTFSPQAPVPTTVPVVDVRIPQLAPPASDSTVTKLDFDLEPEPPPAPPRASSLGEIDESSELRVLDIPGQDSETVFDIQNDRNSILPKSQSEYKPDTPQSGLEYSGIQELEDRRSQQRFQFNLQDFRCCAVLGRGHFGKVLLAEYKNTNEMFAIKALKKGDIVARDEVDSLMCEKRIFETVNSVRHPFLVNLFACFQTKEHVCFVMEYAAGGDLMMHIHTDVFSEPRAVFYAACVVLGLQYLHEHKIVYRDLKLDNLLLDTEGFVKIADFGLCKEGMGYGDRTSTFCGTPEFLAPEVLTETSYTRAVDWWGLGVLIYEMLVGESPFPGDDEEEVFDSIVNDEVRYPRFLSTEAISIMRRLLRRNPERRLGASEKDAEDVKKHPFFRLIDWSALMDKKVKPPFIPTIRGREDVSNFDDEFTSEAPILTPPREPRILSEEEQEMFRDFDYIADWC
Chain of RAC-beta serine/threonine-protein kinase (Homo sapiens) (P31751 whole entry): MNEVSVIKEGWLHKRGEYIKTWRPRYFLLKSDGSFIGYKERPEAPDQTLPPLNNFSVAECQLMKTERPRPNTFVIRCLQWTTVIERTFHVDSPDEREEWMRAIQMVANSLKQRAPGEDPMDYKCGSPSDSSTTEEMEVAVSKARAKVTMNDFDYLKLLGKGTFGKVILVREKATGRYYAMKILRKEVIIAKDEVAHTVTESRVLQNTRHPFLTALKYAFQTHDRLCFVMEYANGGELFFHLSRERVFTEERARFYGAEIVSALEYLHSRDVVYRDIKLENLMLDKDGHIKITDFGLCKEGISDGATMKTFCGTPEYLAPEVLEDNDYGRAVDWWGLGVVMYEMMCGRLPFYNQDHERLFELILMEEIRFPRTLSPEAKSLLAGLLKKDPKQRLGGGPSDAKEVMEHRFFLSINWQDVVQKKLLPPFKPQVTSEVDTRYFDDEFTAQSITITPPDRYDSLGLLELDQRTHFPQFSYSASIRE

## N=C(N)NCCC[C@H](NC(=O)[C@H](CCCNC(=N)N)NC(=O)[C@H](CCCNC(=N)N)NC(=O)[C@H](CCCNC(=N)N)NC(=O)[C@H](CCCNC(=N)N)NC(=O)[C@H](CCCNC(=N)N)NC(=O)CCCCCNC(=O)[C@@H]1C[C@@H](O)[C@H](n2cnc3c(N)ncnc32)C1)C(N)=O
[1]
  Activity: 70%
[2]
  Activity: 98%
Homo sapiens [3]
  Activity: 114%
[4]
  Activity: 92%
[5]
  Activity: 104%
[6]
  Activity: 62%
[7]
  Activity: 81%
[8]
  Activity: 71%
[9]
  Activity: 74%
[10]
  Activity: 6%
[11]
  Activity: 32%
[12]
  Activity: 76%
[13]
  Activity: 88%
[14]
  Activity: 40%
[15]
  Activity: 19%
[16]
  Activity: 111%
[17]
  Activity: 101%
Homo sapiens [18]
  Activity: 0%
Homo sapiens [19]
  Activity: 7%
[20]
  Activity: 84%
[21]
  Activity: 103%
[22]
  Activity: 88%
[23]
  Activity: 72%
[24]
  Activity: 85%
[25]
  Activity: 86%
[26]
  Activity: 84%
[27]
  Activity: 28%
[28]
  Activity: 82%
[29]
  Activity: 81%
[30]
  Activity: 25%
[31]
  Activity: 91%
[32]
  Activity: 10%
[33]
  Activity: 7%
[34]
  Activity: 3%
[35]
  Activity: 96%
[36]
  Activity: 77%
[37]
  Activity: 82%
[38]
  Activity: 83%
[39]
  Activity: 28%
[40]
  Activity: 76%
[41]
  Activity: 81%
[42]
  Activity: 98%
[43]
  Activity: 27%
[44]
  Activity: 97%
[45]
  Activity: 103%
[46]
  Activity: 33%
[47]
  Activity: 10%
[48]
  Activity: 97%
[49]
  Activity: 12%
[50]
  Activity: 20%
Homo sapiens [51]
  Activity: 103%
[52]
  Activity: 19%
[53]
  Activity: 86%
[54]
  Activity: 86%
[55]
  Activity: 63%
[56]
  Activity: 84%
[57]
  Activity: 91%
[58]
  Activity: 88%
[59]
  Activity: 2%
[60]
  Activity: 96%
[61]
  Activity: 51%
[62]
  Activity: 73%
[63]
  Activity: 30%
[64]
  Activity: 59%

## COC(=O)[C@@H]1C[C@@H](O)[C@H](n2cnc3c(N)ncnc32)C1
[65]
  IC50: 168 µM

## COC(=O)[C@H]1C[C@H](O)[C@@H](n2cnc3c(N)ncnc32)C1
[65]
  IC50: > 1000 µM
